Patent US4556560A, “Methods for the treatment and prophylaxis of diaper rash and diaper dermatitis” (The Procter & Gamble Company, priority 1983, dated 1985)

Experiments:
[1] = test system: primary skin irritation caused by prolonged contact of a urine/feces mixture under occluded conditions; experiment: Hairless mouse patch test: feces/urea homogenate patched with lipase-inhibiting agent solution (Examples I-V); assay type: in vivo, hairless mice
Text: (§1) This method may be used to determine the utility and effect of lipase-inhibiting agents, or compositions containing these agents, on primary skin irritation caused by prolonged contact of a urine/feces mixture under occluded conditions.
(§2) Male, hairless mice at 8-12 weeks of age are used for the study. The animals are housed individually in plastic shoe box cages for the experiments, and fed Purina® Rodent Laboratory Chow and tap water ad libitum. Mice are assigned numbers during each study which are posted on each cage.
(§3) The mice are cared for, and the room conditions maintained following acceptable animal study conditions.
(§4) Patch treatment compositions are prepared by taking the fecal material to be tested and mixing it with a 2% urea solution at a weight:weight ratio of 1:4 feces:urea. 0.1 ml of the lipase-inhibiting agent solution or composition of the desired concentration is patched along with 0.375 ml of the urine/feces mixture. Patches for the mice are prepared by saturating an absorbent material (such as cotton) with the feces/urine suspension, placing it on the skin and covering it with an impermeable material. For example, this may be done by cutting away the adhesive border from a 37×20 mm Webril pad. The Webril pad will then be cut into quarters to obtain 1 cm^2 patches. Each patch will be saturated with 0.1 ml of the lipase-inhibiting agent solution and 0.375 ml of the urine/feces mixture. The control patch is simply 0.375 ml of the urine/feces mixture. Prior to application of test or control patches, each mouse is anesthetized by placement into a chamber containing ether. The test patch is then placed midline on the mouse back, towards the shoulder, and covered with Blenderm® (3M) tape in order to occlude the patch site. The mouse is next wrapped with Scanpor® tape (Norgeplaster A/S) to secure the patch. After 24 hrs., the initial patch is removed and a fresh patch of test substance or a fresh control is applied, as described above. After 24 hrs., the second patch is removed, thus giving a total occluded patch time of 48 hrs.
(§5) Approximately 1 hr. after removal of the second patch, the test site skin condition is evaluated using the grading scales outlined in the following tables:
(§6) Each animal is examined by two graders, at least one of whom is blind as to the treatments applied. Both graders' scores should be calculated for each of the above categories, as well as a primary Irritation Index equalling the sum of scores for each category.
(§7) In Examples I-V, fecal material is mixed with a 2% urea solution at a weight:weight ratio of 1:4 feces:urea, and this homogenate is patched as described above in the Hairless Mouse model with 0.375 ml of this homogenate. The pure homogenate is patched as the control. Where a specific concentration of lipase-inhibiting agent is expressed, the feces/urea homogenate is patched in combination with 0.1 ml of a solution of the described lipase-inhibiting agent solution.

[2] = test system: lipase; experiment: Lipase activity of stool-free, urine-free pure lipase composition with lipase-inhibiting agent (Examples VI, VII); assay type: biochemical; parameters: LIPASE ACTIVITY: unit not given here; conditions: for % REDUCTION LIPASE ACTIVITY / LIPASE ACTIVITY: pure lipase composition; for inhibition of lipase: inability to provide the critical level of free metal ion Zn++
Method: (§8) For example, the method of commerce available from Harleco® diagnostics utilizes the activity of lipase, i.e., the digestion of triglycerides to diglycerides and monoglycerides, glycerol and free fatty acids. After this digestion is allowed to proceed at the optimal buffered pH, the turbidity is measured spectrophotometrically at 400 nanometers.
(§9) In Examples VI and VII, a stool-free and urine-free pure lipase composition of the expressed activity is patched in the Hairless Mouse model as described above. This is the Control. This lipase composition is patched in combination with 0.1 ml of the lipase-inhibiting agent solution at the concentration expressed.
In this Example, a non-stool, no-urine pure lipase composition is patched in the hairless mouse model, and then in combination with a lipase-inhibiting agent at the indicated concentrations.

[3] = test system: lipase; experiment: Relative lipase activity of the feces/urea patch with lipase-inhibiting agent (Examples I, II, IV); assay type: biochemical
Method: as §8, §7

[4] = test system: lipase-related skin irritation; experiment: Hairless mouse patch test with pure lipase composition (Example VII); assay type: in vivo, hairless mice; conditions: 100 mM (ZnO, ZnCO3, Zn undecylenate patched as suspensions)
Text: as §1, §2, §3, §4, §5, §6
as §9, with “expressed. […]” for “expressed.”

[5] = background statement; cited from earlier work
[6] = footnote to Example VII
[7] = Example III, 100 mM, control 4.95 ± 0.45 (control lipase activity 100,000)
[8] = Example VI, 50 mM, lipase control 40,320
[9] = Example VI, 100 mM, lipase control 40,320
[10] = Example I, 10 mM agent solution, control 6250
[11] = Example I, 25 mM agent solution, control 6250
[12] = Example I, 50 mM agent solution, control 6250
[13] = Example I, 100 mM agent solution, control 6250
[14] = Example I, 10 mM, 0.1 ml with 0.375 ml feces/urea homogenate, 48 hrs occluded, control 7.20 ± 0.75
[15] = Example I, 25 mM, 0.1 ml with 0.375 ml feces/urea homogenate, 48 hrs occluded, control 7.20 ± 0.75
[16] = Example I, 50 mM, 0.1 ml with 0.375 ml feces/urea homogenate, 48 hrs occluded, control 7.20 ± 0.75
[17] = Example I, 100 mM, 0.1 ml with 0.375 ml feces/urea homogenate, 48 hrs occluded, control 7.20 ± 0.75
[18] = Example IV, 10 mM, control 127,500
[19] = Example IV, 25 mM, control 127,500
[20] = Example IV, 50 mM, control 127,500
[21] = Example IV, 100 mM, control 127,500
[22] = Example V, 100 mM, control 4.45 ± 0.17
[23] = Example VII, 100 mM (ZnO, ZnCO3, Zn undecylenate patched as suspensions), control 36,750

With `[Ca+2].[Cl-].[Cl-]` [CaCl2, reference compound] the “IRRITATION INDEX” value [1, 7] was 3.55 ± 1.10.
With `[Cl][Co][Cl]` [CoCl2, cobalt chloride] the “% REDUCTION LIPASE ACTIVITY” value ([2]; Example VI, 50 mM) was 41%, the “LIPASE ACTIVITY” value [2, 8] was 23,750 and the “% REDUCTION LIPASE ACTIVITY” value ([2]; Example VI, 100 mM) was 81%. The “LIPASE ACTIVITY” value [2, 9] was 7,750.
For `O=S(=O)([O-])[O-].[Cu+2]` [CuSO4, copper sulfate], the “% REDUCTION LIPASE ACTIVITY” value ([2]; Example VI, 50 mM) was 54%, the “LIPASE ACTIVITY” value [2, 8] was 18,500 and the “% REDUCTION LIPASE ACTIVITY” value ([2]; Example VI, 100 mM) was 59%. The “LIPASE ACTIVITY” value [2, 9] was 16,500.
In the case of `O.O.O.O.O.O=S(=O)([O-])[O-].[Cu+2]` [CuSO4.5H2 O, copper sulfate pentahydrate], the “RELATIVE LIPASE ACTIVITY” value [3, 10] is reported as 4750, the “RELATIVE LIPASE ACTIVITY” value [3, 11] is reported as 2250 and the “RELATIVE LIPASE ACTIVITY” value [3, 12] is reported as 750. The “RELATIVE LIPASE ACTIVITY” value [3, 13] was 0, the “IRRITATION INDEX” value [1, 14] was 6.75 ± 1.42 and the “IRRITATION INDEX” value [1, 15] was 5.35 ± 2.93. The “IRRITATION INDEX” value [1, 16] was 3.50 ± 3.08 and the “IRRITATION INDEX” value [1, 17] was 5.50 ± 1.05.
In the case of `O.O.O.O.O.O.[Cl-].[Cl-].[Cl-].[Fe+3]` [FeCl3.6H2 O, iron(III)chloride hexahydrate], the “RELATIVE LIPASE ACTIVITY” value [3, 18] is reported as 177,500, the “RELATIVE LIPASE ACTIVITY” value [3, 19] is reported as 128,750 and the “RELATIVE LIPASE ACTIVITY” value [3, 20] is reported as 111,350. The “RELATIVE LIPASE ACTIVITY” value [3, 21] was 6250, the “% REDUCTION LIPASE ACTIVITY” value ([2]; Example VI, 50 mM) was 99% and the “LIPASE ACTIVITY” value [2, 8] was 500. The “% REDUCTION LIPASE ACTIVITY” value ([2]; Example VI, 100 mM) was 100% and the “LIPASE ACTIVITY” value [2, 9] was 0.
With `[Cl][La]([Cl])[Cl]` [LaCl3, lanthanum chloride] the “IRRITATION INDEX” value [1, 7] was 0 ± 0.
With `[Cl][Sn][Cl]` [SnCl2, tin(II)chloride] the “% REDUCTION LIPASE ACTIVITY” value ([2]; Example VI, 50 mM) was 93%, the “LIPASE ACTIVITY” value [2, 8] was 3,000 and the “% REDUCTION LIPASE ACTIVITY” value ([2]; Example VI, 100 mM) was 97%. For the same compound, the “LIPASE ACTIVITY” value [2, 9] was 1,250 and the “IRRITATION INDEX” value [1, 22] was 0.50 ± 0.16.
In the case of `C=CCCCCCCCCC(=O)[O-].C=CCCCCCCCCC(=O)[O-].[Zn+2]` [Zn undecylenate], the “% REDUCTION IN IRRITATION INDEX” value [4] is reported as 73% and the “LIPASE ACTIVITY” value [2, 23] is reported as 10,080.
In the case of `O=C([O-])[O-].[Zn+2]` [ZnCO3, zinc carbonate, reference compound], the “% REDUCTION IN […]” value [4] is reported as 5%, the “LIPASE ACTIVITY” value [2, 23] is reported as 35,000 and the inhibition of lipase [2] is reported as “ineffective”.
For `[Cl-].[Cl-].[Zn+2]` [ZnCl2, zinc chloride], the “RELATIVE LIPASE ACTIVITY” value [3, 10] was 5000, the “RELATIVE LIPASE ACTIVITY” value [3, 11] was 0 and the “RELATIVE LIPASE ACTIVITY” value [3, 12] was 0. The “RELATIVE LIPASE ACTIVITY” value [3, 13] was 0, the “RELATIVE LIPASE ACTIVITY” value ([3]; Example II, 20 mM, control 6000) was 500 and the “RELATIVE LIPASE ACTIVITY” value ([3]; Example II, 30 mM, control 6000) was 1250. The “RELATIVE LIPASE ACTIVITY” value ([3]; Example II, 40 mM, control 6000) was 0, the “RELATIVE LIPASE ACTIVITY” value ([3]; Example II, 50 mM, control 6000) was 0 and the “RELATIVE LIPASE ACTIVITY” value ([3]; Example II, 60 mM, control 6000) was 0. The “RELATIVE LIPASE ACTIVITY” value ([3]; Example II, 70 mM, control 6000) was 0, the “RELATIVE LIPASE ACTIVITY” value [3, 18] was 72,500 and the “RELATIVE LIPASE ACTIVITY” value [3, 19] was 0. The “RELATIVE LIPASE ACTIVITY” value [3, 20] was 0, the “RELATIVE LIPASE ACTIVITY” value [3, 21] was 0 and the “% REDUCTION IN IRRITATION INDEX” value [4] was 97%. For the same compound, the “% REDUCTION LIPASE ACTIVITY” value ([2]; Example VI, 50 mM) was 96%, the “LIPASE ACTIVITY” value [2, 8] was 1,500 and the “% REDUCTION LIPASE ACTIVITY” value ([2]; Example VI, 100 mM) was 98%. The “LIPASE ACTIVITY” value [2, 9] was 750, the “LIPASE ACTIVITY” value [2, 23] was 1,250 and the “IRRITATION INDEX” value [1, 14] was 6.05 ± 1.23. For the same compound, the “IRRITATION INDEX” value [1, 15] was 4.95 ± 1.36, the “IRRITATION INDEX” value [1, 16] was 0.80 ± 1.01 and the “IRRITATION INDEX” value [1, 17] was 1.15 ± 0.97. The “IRRITATION INDEX” value ([1]; Example II, 20 mM, control 6.67 ± 0.94) was 3.50 ± 2.44, the “IRRITATION INDEX” value ([1]; Example II, 30 mM, control 6.67 ± 0.94) was 4.87 ± 1.37 and the “IRRITATION INDEX” value ([1]; Example II, 40 mM, control 6.67 ± 0.94) was 2.62 ± 1.86. For the same compound, the “IRRITATION INDEX” value ([1]; Example II, 50 mM, control 6.67 ± 0.94) was 2.54 ± 1.78, the “IRRITATION INDEX” value ([1]; Example II, 60 mM, control 6.67 ± 0.94) was 1.42 ± 1.62 and the “IRRITATION INDEX” value ([1]; Example II, 70 mM, control 6.67 ± 0.94) was 1.17 ± 1.01. The “IRRITATION INDEX” value [1, 7] was 0.55 ± 1.23, the “IRRITATION INDEX” value ([1]; Example IV, 10 mM, control 6.15 ± 1.08) was 5.55 ± 0.95 and the “IRRITATION INDEX” value ([1]; Example IV, 25 mM, control 6.15 ± 1.08) was 0.50 ± 0.82. For the same compound, the “IRRITATION INDEX” value ([1]; Example IV, 50 mM, control 6.15 ± 1.08) was 0.45 ± 0.64, the “IRRITATION INDEX” value ([1]; Example IV, 100 mM, control 6.15 ± 1.08) was 1.75 ± 1.65 and the “IRRITATION INDEX” value [1, 22] was 1.85 ± 0.61.
In the case of `[O]=[Zn]` [ZnO, zinc oxide, reference compound], the solubility in water [5] is listed as “almost totally insoluble”, the “% REDUCTION IN […]” value [4] is listed as 10% and the “LIPASE ACTIVITY” value [2, 23] is listed as 33,000. The inhibition of lipase [2] was “ineffective” and the “concentration of solution the salt is capable of forming” value [6] was 20 µM.
For Zinc glycerolate, the solubility in water [5] is listed as “insoluble”.
